Assay results: US9284322B2, “Nicotinic receptor compounds” (priority 2010, dated 2016)
Counter-ions that a name gives are not always drawn. Like-named read-outs stand apart in the source and are kept apart here.

How the values were obtained:
[1] = system: mice; assay: animal or person; format: in vivo, mouse; conditions: for ED50 Tail Flick / Tail Flick, % effect at dose (ED50 column): mice, s.c.; for ED50 Tail Flick: tested 5 min after injection; for Tail Flick, % effect at dose (ED50 column): @ 10 mg/kg; for ED50: Mus musculus, sc, 5 min, read-out: ED50 Tail Flick
Protocol: (§1) Antinociception was assessed by the tail-flick method of F. E. D'Amour and D. L. Smith (J. Pharmacol. Exp. Ther. 1941, 72, 74-79). A control response (2-4 sec) was determined for each mouse before treatment, and a test latency was determined after drug administration. In order to minimize tissue damage, a maximum latency of 10 sec was imposed. Antinociceptive response was calculated as percent maximum possible effect (% MPE), where % MPE=[(test−control)/(10−control)]×100. Groups of eight to twelve animals were used for each dose and for each treatment. […] Eight to twelve mice were treated per dose and a minimum of four doses were performed for dose-response curve determination.

[2] = biological target: heteromeric nAChRs containing alpha and beta subunits (αβ; alpha4 beta2 predominant) (Rattus norvegicus, UniProt P09483+P12390); format: binding; conditions: read-out: αβ [3H]Epibatidine (Ki)
Protocol: The alpha4 beta2 subtype is the predominant nAChR present in brain tissue used in this assay.
Adult male rat cerebral cortices (Pelfreeze Biological, Rogers, Ark.) were homogenized in 39 volumes of ice-cold 50 mM Tris buffer (pH 7.4 at 4° C.) containing 120 mM NaCl, 5 mM KCl, 2 mM CaCl2, and 1 mM MgCl2 and sedimented at 37,000 g for 10 min at 4° C. The supernatant was discarded, the pellet resuspended in the original volume of buffer, and the wash procedure repeated twice more. After the last centrifugation, the pellet was resuspended in 1/10 its original homogenization volume and stored at −80° C. until needed. […] After a 4-h incubation period at room temperature, the samples were vacuum-filtered over GF/B filter papers presoaked in 0.03% polyethylenimine using a Brandel 48-well harvester and washed with 6 mL of ice-cold buffer. The amount of radioactivity trapped on the filter was determined by standard liquid scintillation techniques in a TriCarb 2200 scintillation counter (Packard Instruments, Meriden, Conn.) at approximately 50% efficiency. The binding data were fit using the nonlinear regression analysis routines in Prism (Graphpad, San Diego, Calif.). The Ki values for the test compounds were calculated from their respective IC50 values using the Cheng-Prusoff equation.

[3] = biological target: homomeric nAChRs containing the alpha7 subunit (α7) (Rattus norvegicus (Rat), UniProt Q05941); assay: biochemical; format: binding
[4] = system: mice; assay: animal or person; format: in vivo, mouse; conditions: for ED50: Mus musculus, sc, 0.5 h, read-out: ED50 Hypothermia
Protocol: Rectal temperature was measured by a thermistor probe (inserted 24 mm) and digital thermometer (Yellow Springs Instrument Co., Yellow Springs, Ohio). […] The difference in rectal temperature before and after treatment was calculated for each mouse. The ambient temperature of the laboratory varied from 21-24° C. from day to day.

[5] = system: mice; format: in vivo, mouse; conditions: for AD50 Tail Flick / Tail Flick, % effect at dose: mice; for AD50 Tail Flick: antagonist test; for Tail Flick, % effect at dose: @ 100 μg/kg
Protocol: as §1
(§2) Table 6 provides data for a number of compounds of the invention that were tested according to the assays described above.

[6] = system: mice; assay: animal or person; format: in vivo, mouse; conditions: for ED50 Hot Plate / Hot Plate, % effect at dose (ED50 column): mice, s.c.; for ED50 Hot Plate: tested 5 min after injection; for Hot Plate, % effect at dose (ED50 column): @ 10 mg/kg; for ED50: Mus musculus, sc, 5 min, read-out: ED50 Hot Plate
Protocol: (§3) Mice were placed into a 10 cm wide glass cylinder on a hot plate (Thermojust Apparatus) maintained at 55.0° C. Two control latencies at least […] apart were determined for each mouse. The normal latency (reaction time) was 8 to 12 sec. Antinociceptive response was calculated as percent maximum possible effect (% MPE), where % MPE=[(test−control)/40−control)×100]. The reaction time was scored when the animal jumped or licked its paws.

[7] = system: mice; assay: animal or person; format: in vivo, mouse; conditions: for ED50: Mus musculus, sc, read-out: ED50 Spontaneous Activity
Protocol: (§4) Interruptions of the photocell beams (two banks of eight cells each) were then recorded for the next 10 min. Data were expressed as number of photocell interruptions.

[8] = system: mice; format: in vivo, mouse; conditions: for AD50 Hot Plate: antagonist test
Protocol: as §3, with “The normal latency (reaction time) was 8 to 12 sec.” left out
as §2

[9] = system: mice; assay: Functional agonist tests (nAChR animal assays); conditions: mouse, in vivo
Protocol: as §1
as §3, with “The normal latency (reaction time) was 8 to 12 sec.” left out
as §4
Rectal temperature was measured by a thermistor probe (inserted 24 mm) and digital thermometer (Yellow Springs Instrument Co., Yellow Springs, Ohio). […]

[10] = rat cerebral cortex homogenate, 40-50 pM [125I]MLA, read-out: α7 [125I]iodoMLA (Ki)
[11] = mice, s.c., rectal temperature 30 min after injection
[12] = mice, s.c., 5 min after administration, recorded for 10 min

Sequence of homomeric nAChRs containing the alpha7 subunit (α7) (Q05941 23-502 limits assumed): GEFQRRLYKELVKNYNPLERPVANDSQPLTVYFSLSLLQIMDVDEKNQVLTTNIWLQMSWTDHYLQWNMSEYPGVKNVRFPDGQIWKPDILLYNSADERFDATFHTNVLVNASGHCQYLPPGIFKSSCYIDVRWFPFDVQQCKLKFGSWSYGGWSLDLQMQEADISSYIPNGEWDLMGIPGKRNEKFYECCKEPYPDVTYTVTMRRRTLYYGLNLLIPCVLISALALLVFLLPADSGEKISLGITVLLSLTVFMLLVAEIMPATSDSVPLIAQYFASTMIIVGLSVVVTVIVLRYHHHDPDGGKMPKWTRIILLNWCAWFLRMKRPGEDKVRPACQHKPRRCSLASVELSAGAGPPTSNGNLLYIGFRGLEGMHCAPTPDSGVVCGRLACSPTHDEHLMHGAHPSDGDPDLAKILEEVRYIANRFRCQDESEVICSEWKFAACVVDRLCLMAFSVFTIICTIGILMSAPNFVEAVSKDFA

Row | Structure (SMILES) | Ki [2] | Ki [3, 10] | ED50 Hypothermia [4, 11] | AD50 Tail Flick [5] | ED50 Spontaneous Activity [7, 12] | Tail Flick, % effect at dose (ED50 column) [1] | Hot Plate, % effect at dose (ED50 column) [6] | further results
1 | Fc1ncc(C2CC3CCC2N3)cc1-c1cccnc1 (centres unmarked) | 0.35 ± 0.038 nM | 5500 ± 1420 nM | 3.7 (2.9-4.5) mg/kg | 3 (0.5-24) μg/kg | 0.69 (0.4-12.8) mg/kg | – | – | ED50 Tail Flick [1]: 4.9 (3.6-6.7) mg/kg; ED50 Hot Plate [6]: 5 (3.7-6.7) mg/kg; Hot Plate, % effect at dose ([8]; @ 1000 μg/kg): 10% @ 1000
2 | Fc1ccc(-c2cc(C3CC4CCC3N4)cnc2F)cn1 (centres unmarked) | 0.049 ± 0.02 nM | 4850 ± 1800 nM | 0.68 (0.52-1.1) mg/kg | – | 0.38 (0.13-1.1) mg/kg | – | – | ED50 Tail Flick [1]: 3.6 (2.7-4.7) mg/kg; Tail Flick, % effect at dose [5]: 1% @ 100; ED50 Hot Plate [6]: 3.27 (2.1-5.3) mg/kg; Hot Plate, % effect at dose ([8]; @ 100 μg/kg): 1% @ 100
3 | Fc1ncc(C2CC3CCC2N3)cc1-c1ccc(Cl)nc1 (centres unmarked) | 0.063 ± 0.08 nM | 6600 ± 731 nM | 3.11 (1.5-5.1) mg/kg | 9 (2-38) μg/kg | 1.58 (0.5-4.4) mg/kg | 10% @ 10 | 27% @ 10 | AD50 Hot Plate [8]: 2001 (297-3610) μg/kg
4 | Nc1ccc(-c2cc(C3CC4CCC3N4)cnc2F)cn1 (centres unmarked) | 0.25 ± 0.033 nM | 1470 ± 203 nM | 2.8 (2-3.8) mg/kg | 30 (3-35) μg/kg | 1.84 (0.5-6.3) mg/kg | 5% @ 10 | 8% @ 10 | Hot Plate, % effect at dose ([8]; @ 10 μg/kg): 50% @ 10
5 | COc1ccc(-c2cc(C3CC4CCC3N4)cnc2F)cn1 (centres unmarked) | 0.13 ± 0.027 nM | 524 ± 110 nM | 0.77 (0.51-1.2) mg/kg | 21 (3-125) μg/kg | 0.53 (0.19-1.1) mg/kg | – | – | ED50 Tail Flick [1]: 4.22 (3-5.3) mg/kg; ED50 Hot Plate [6]: 1.72 (0.9-3.4) mg/kg; Hot Plate, % effect at dose ([8]; @ 100 μg/kg): 0% @ 100
6 | Fc1ncc(C2CC3CCC2N3)cc1-c1ccncc1 (centres unmarked) | 0.12 ± 0.03 nM | 9700 ± 2400 nM | 1.69 (1.1-2.6) mg/kg | 12 (10-172) μg/kg | 0.38 (0.2-2.7) mg/kg | 13% @ 10 | 40% @ 10 | AD50 Hot Plate [8]: 290 (19-991) μg/kg
7 | Fc1cc(-c2cc(C3CC4CCC3N4)cnc2F)ccn1 (centres unmarked) | 0.067 ± 0.01 nM | 7300 ± 150 nM | 1.58 (0.97-2.1) mg/kg | 4 (0.1-70) μg/kg | 0.17 (0.08-1.5) mg/kg | 5% @ 10 | 18% @ 10 | AD50 Hot Plate [8]: 117 (110-1100) μg/kg
8 | Fc1ncc(C2CC3CCC2N3)cc1-c1ccnc(Cl)c1 (centres unmarked) | 1.18 ± 0.14 nM | > 10000 nM | 2.74 (1.89-3.5) mg/kg | 320 (45-3262) μg/kg | 1.01 (0.27-3.7) mg/kg | 11% @ 10 | 19% @ 10 | AD50 Hot Plate [8]: 1370 (180-1430) μg/kg
9 | Nc1cc(-c2cc(C3CC4CCC3N4)cnc2F)ccn1 (centres unmarked) | 0.13 ± 0.005 nM | 719 ± 101 nM | 1.87 (0.1-3.5) mg/kg | 9 (0.4-19) μg/kg | 0.61 (0.04-9.1) mg/kg | 11% @ 10 | 12% @ 10 | Hot Plate, % effect at dose ([8]; @ 10,000 μg/kg): 10% @ 10,000
10 | COc1cc(-c2cc(C3CC4CCC3N4)cnc2F)ccn1 (centres unmarked) | 0.04 ± 0.012 nM | 7900 ± 1080 nM | – | – | – | – | – | –
11 | Fc1cc(-c2cncc(C3CC4CCC3N4)c2)ccn1 (centres unmarked) (as salt: fumarate) | – | – | – | – | – | – | – | melting point: 210 to 214 °C
12 | COc1cc(-c2cncc(C3CC4CCC3N4)c2)ccn1 (centres unmarked) (as salt: fumarate) | – | – | – | – | – | – | – | melting point: 160 to 164 °C
13 | Fc1ncc(C2CC3CCC2N3)cc1-c1cncnc1 (stereo not drawn) (as salt: fumarate) [2-exo-2′-Fluoro-3′-(pyrimidin-5-yl)deschloroepibatidine fumarate] | – | – | – | – | – | – | – | melting point: 160 to 163 °C
14 | Clc1ncc(C2CC3CCC2N3)cc1-c1cncnc1 (stereo not drawn) (as salt: fumarate) [Cl, 2-exo-2′-Chloro-3′-(pyrimidin-5-yl)deschloroepibatidine fumarate] | – | – | – | – | – | – | – | melting point: 199 to 203 °C
15 | c1ncc(-c2cncc(C3CC4CCC3N4)c2)cn1 (stereo not drawn) (as salt: fumarate) [H, 2-exo-3′-(Pyrimidin-5-yl)deschloroepibatidine fumarate] | – | – | – | – | – | – | – | melting point: 172 to 176 °C
16 | Clc1ccc(C2CC3CCC2N3)cn1 (single isomer, unassigned; (-)) [(−)-epibatidine, reference compound] | – | – | – | – | – | – | – | ED50 [6]: 0.004 mg/kg
17 | Clc1ncc(C2CC3CCC2N3)cc1-c1cncnc1 (stereo not drawn) [Cl, 2-exo-2′-Chloro-3′-(pyrimidin-5-yl)deschloroepibatidine fumarate] | – | – | – | – | – | – | – | ED50 [1]: 0.28 mg/kg; Ki [3]: 170 ± 64 nM; ED50 [4]: 0.03 mg/kg; Tail Flick, % effect at dose [5]: 5% @ 100; ED50 [6]: 0.25 mg/kg; ED50 [7]: 0.027 mg/kg; Hot Plate, % effect at dose ([8]; @ 100 μg/kg): 2% @ 100
18 | Fc1ncc(C2CC3CCC2N3)cc1-c1cncnc1 (stereo not drawn) [F, 2-exo-2′-Fluoro-3′-(pyrimidin-5-yl)deschloroepibatidine fumarate] | – | – | – | 0.24 µg/kg | – | – | – | ED50 [1]: 2.15 mg/kg; Ki [3]: 1930 nM; ED50 [4]: 0.25 mg/kg; ED50 [6]: 1.2 mg/kg; ED50 [7]: 0.15 mg/kg; Hot Plate, % effect at dose ([8]; @ 100 μg/kg): 33% @ 100
19 | c1ncc(-c2cncc(C3CC4CCC3N4)c2)cn1 (stereo not drawn) [H, 2-exo-3′-(Pyrimidin-5-yl)deschloroepibatidine fumarate] | – | – | – | – | – | – | – | ED50 [1]: 1.5 mg/kg; Ki [3]: 32.5 ± 1.3 nM; ED50 [4]: 0.6 mg/kg; Tail Flick, % effect at dose [5]: 15% @ 100; ED50 [6]: 1.63 mg/kg; ED50 [7]: 0.32 mg/kg; Hot Plate, % effect at dose ([8]; @ 100 μg/kg): 0% @ 100
20 | CN1CCCC1c1cccnc1 (centres unmarked) [Nicotine, reference compound] | – | – | – | – | – | – | – | ED50 [1]: 1.3 mg/kg; ED50 [4]: 1 mg/kg; ED50 [6]: 0.65 mg/kg; ED50 [7]: 0.5 mg/kg
21 | c1cnc2cc3c(cc2n1)[C@@H]1CNC[C@H]3C1 [varenicline, reference compound] | – | – | – | 0.2 µg/kg | – | 11% @ 10 | 10% @ 10 | ED50 [4, 11]: 2.8 mg/kg; functional antagonism in the tail-flick test (in words) ([5]; mouse, in vivo): functional antagonists; ED50 [7, 12]: 2.1 mg/kg; activity in one or more of the functional agonist tests (in words) [9]: partial agonists; AD50 Hot Plate [8]: 470 µg/kg
